Measurements reported in the CheMixHub viscosity set.
± gives the uncertainty stated by the source.

Assay: xn = mol fraction of the nth substance listed

COC(=O)OC + CCO
101.3 kPa
Details	viscosity [mPa·s]
293.15 K, x1 = 0.0498	1.07 ± 0.052
293.15 K, x1 = 0.0978	0.974 ± 0.048
293.15 K, x1 = 0.176	0.853 ± 0.043
293.15 K, x1 = 0.2928	0.74 ± 0.038
293.15 K, x1 = 0.4053	0.675 ± 0.035
293.15 K, x1 = 0.4981	0.646 ± 0.034
293.15 K, x1 = 0.5982	0.625 ± 0.033
293.15 K, x1 = 0.6962	0.613 ± 0.033
293.15 K, x1 = 0.8024	0.609 ± 0.033
293.15 K, x1 = 0.8894	0.607 ± 0.033
293.15 K, x1 = 0.9516	0.618 ± 0.033
298.15 K, x1 = 0.0598	0.966 ± 0.048
298.15 K, x1 = 0.095	0.897 ± 0.045
298.15 K, x1 = 0.1692	0.786 ± 0.04
298.15 K, x1 = 0.2725	0.685 ± 0.036
298.15 K, x1 = 0.3854	0.625 ± 0.033
298.15 K, x1 = 0.4778	0.594 ± 0.032
298.15 K, x1 = 0.5686	0.573 ± 0.031
298.15 K, x1 = 0.6777	0.561 ± 0.031
298.15 K, x1 = 0.7915	0.555 ± 0.03
298.15 K, x1 = 0.8775	0.556 ± 0.03
298.15 K, x1 = 0.9366	0.565 ± 0.031
303.15 K, x1 = 0.0673	0.832 ± 0.042
303.15 K, x1 = 0.1142	0.752 ± 0.039
303.15 K, x1 = 0.2249	0.627 ± 0.033
303.15 K, x1 = 0.2894	0.588 ± 0.032
303.15 K, x1 = 0.3906	0.541 ± 0.03
303.15 K, x1 = 0.4848	0.521 ± 0.029
303.15 K, x1 = 0.5996	0.512 ± 0.028
303.15 K, x1 = 0.6931	0.513 ± 0.028
303.15 K, x1 = 0.8038	0.512 ± 0.028
303.15 K, x1 = 0.9072	0.52 ± 0.029
303.15 K, x1 = 0.9462	0.527 ± 0.029
313.15 K, x1 = 0.0504	0.731 ± 0.038
313.15 K, x1 = 0.0934	0.662 ± 0.035
313.15 K, x1 = 0.2082	0.535 ± 0.029
313.15 K, x1 = 0.3087	0.472 ± 0.027
313.15 K, x1 = 0.393	0.45 ± 0.026
313.15 K, x1 = 0.5026	0.44 ± 0.025
313.15 K, x1 = 0.6011	0.438 ± 0.025
313.15 K, x1 = 0.7052	0.44 ± 0.025
313.15 K, x1 = 0.7968	0.445 ± 0.026
313.15 K, x1 = 0.9075	0.463 ± 0.026
313.15 K, x1 = 0.9507	0.475 ± 0.027

COCCOCCOC + CCCCCCCCCO
101 kPa
Details	viscosity [mPa·s]
293.15 K, x1 = 0.03749	9.714 ± 0.13
293.15 K, x1 = 0.09901	7.617 ± 0.1
293.15 K, x1 = 0.1933	5.424 ± 0.069
293.15 K, x1 = 0.2971	3.978 ± 0.049
293.15 K, x1 = 0.4043	3.002 ± 0.035
293.15 K, x1 = 0.4948	2.43 ± 0.028
293.15 K, x1 = 0.597	1.978 ± 0.022
293.15 K, x1 = 0.6959	1.641 ± 0.018
293.15 K, x1 = 0.822	1.36 ± 0.014
293.15 K, x1 = 0.9135	1.201 ± 0.012
293.15 K, x1 = 0.9364	1.177 ± 0.012
303.15 K, x1 = 0.03786	6.826 ± 0.092
303.15 K, x1 = 0.1002	5.439 ± 0.072
303.15 K, x1 = 0.1822	4.165 ± 0.053
303.15 K, x1 = 0.2967	3.028 ± 0.037
303.15 K, x1 = 0.4005	2.353 ± 0.028
303.15 K, x1 = 0.5022	1.911 ± 0.022
303.15 K, x1 = 0.5943	1.603 ± 0.018
303.15 K, x1 = 0.7009	1.347 ± 0.015
303.15 K, x1 = 0.7989	1.167 ± 0.012
303.15 K, x1 = 0.894	1.038 ± 0.011
303.15 K, x1 = 0.9511	0.975 ± 0.01
313.15 K, x1 = 0.03928	4.899 ± 0.066
313.15 K, x1 = 0.1017	4.015 ± 0.053
313.15 K, x1 = 0.198	3.05 ± 0.039
313.15 K, x1 = 0.304	2.349 ± 0.029
313.15 K, x1 = 0.3952	1.91 ± 0.023
313.15 K, x1 = 0.5025	1.559 ± 0.018
313.15 K, x1 = 0.5982	1.312 ± 0.015
313.15 K, x1 = 0.6977	1.134 ± 0.012
313.15 K, x1 = 0.7914	1.001 ± 0.011
313.15 K, x1 = 0.8971	0.884 ± 0.009
313.15 K, x1 = 0.9456	0.842 ± 0.009

CC=CC(=O)O + c1ccccc1
viscosity [mPa·s], 101 kPa
Details	298.15 K	303.15 K	313.15 K	323.15 K
x1 = 0.0503	0.6275 ± 0.017	0.5854 ± 0.016	0.5132 ± 0.014	0.4526 ± 0.012
x1 = 0.102	0.6591 ± 0.017	0.6129 ± 0.016	0.5349 ± 0.014	0.472 ± 0.013
x1 = 0.1492	0.6902 ± 0.018	0.6364 ± 0.017	0.5555 ± 0.015	0.4889 ± 0.013

Oc1ccccc1 + CCCCNCCCC
298.16 K, 101 kPa
Details	viscosity [mPa·s]
x1 = 0.5012	5.109 ± 0.096
x1 = 0.6086	13.4 ± 0.23
x1 = 0.6558	20.06 ± 0.37
x1 = 0.6934	34.09 ± 0.72
x1 = 0.7223	46.47 ± 1.1
x1 = 0.753	64.82 ± 1.7
x1 = 0.7713	74.82 ± 2.1
x1 = 0.7925	84.1 ± 2.5
x1 = 0.8147	89.23 ± 2.7
x1 = 0.8446	82.1 ± 2.4
x1 = 0.875	62.86 ± 1.6
x1 = 0.8948	49.73 ± 1.1

Oc1ccccc1 + Clc1ccccc1
293.15 K, 101 kPa
Details	viscosity [mPa·s]
x1 = 0.0584	0.825 ± 0.008
x1 = 0.115	0.888 ± 0.009
x1 = 0.2493	1.122 ± 0.011
x1 = 0.3435	1.274 ± 0.013
x1 = 0.4323	1.673 ± 0.017
x1 = 0.5436	2.218 ± 0.022
x1 = 0.6243	2.748 ± 0.028
x1 = 0.7492	4.07 ± 0.043
x1 = 0.84	5.555 ± 0.061

CCCCCCn1cc[n+](C)c1.F[B-](F)(F)F + CCCCCO
101.33 kPa, x1 = 0.135
Details	viscosity [mPa·s]
315 K	5.305 ± 0.53
315.75 K	4.745 ± 0.16

CCCO + CCO
101 kPa
Details	viscosity [mPa·s]
293.15 K, x2 = 0.5	1.564 ± 0.019
293.15 K, x2 = 0.75	1.34 ± 0.017
298.15 K, x2 = 0.158	1.759 ± 0.063
298.15 K, x2 = 0.25	1.64 ± 0.02
298.15 K, x2 = 0.303	1.64 ± 0.064
298.15 K, x2 = 0.439	1.522 ± 0.064
298.15 K, x2 = 0.5	1.407 ± 0.017
298.15 K, x2 = 0.566	1.408 ± 0.065
298.15 K, x2 = 0.684	1.319 ± 0.065
298.15 K, x2 = 0.796	1.233 ± 0.066
298.15 K, x2 = 0.902	1.169 ± 0.066
303.15 K, x2 = 0.25	1.47 ± 0.018
303.15 K, x2 = 0.5	1.26 ± 0.016
308.15 K, x2 = 0.25	1.314 ± 0.016
308.15 K, x2 = 0.5	1.139 ± 0.014
308.15 K, x2 = 0.75	0.99 ± 0.012
313.15 K, x2 = 0.25	1.183 ± 0.015
313.15 K, x2 = 0.5	1.032 ± 0.013
313.15 K, x2 = 0.75	0.903 ± 0.011
318.15 K, x2 = 0.5	0.938 ± 0.012
318.15 K, x2 = 0.75	0.824 ± 0.01
323.15 K, x2 = 0.25	0.969 ± 0.012
323.15 K, x2 = 0.5	0.854 ± 0.011
323.15 K, x2 = 0.75	0.755 ± 0.009

COC(=O)OC + CCCCCC
Details	viscosity [mPa·s]
298.15 K, 101 kPa, x1 = 0.0961	0.2912 ± 0.0037

CNc1ccccc1 + CCC(=O)O
308.15 K, 101.33 kPa
Details	viscosity [mPa·s]
x2 = 0.1405	1.689 ± 0.051
x2 = 0.2649	1.817 ± 0.052
x2 = 0.3831	1.959 ± 0.052
x2 = 0.4886	2.058 ± 0.052
x2 = 0.5912	2.143 ± 0.052
x2 = 0.6846	2.115 ± 0.052
x2 = 0.7714	1.931 ± 0.052
x2 = 0.8525	1.631 ± 0.051
x2 = 0.8913	1.45 ± 0.051
x2 = 0.9291	1.226 ± 0.051
x2 = 0.9645	1.053 ± 0.051
